Measurements taken from patent publication US20140221207A1, “ISOLATED BACTERIAL STRAIN OF THE GENUS BURKHOLDERIA AND PESTICIDAL METABOLITES THEREFROM- FORMULATIONS AND USES” (MARRONE BIO INNOVATIONS, INC., priority 2011, published 2014).
Like-named read-outs stand apart in the source and are kept apart here.

Columns and labels:
radish plants = assay: Whole plant herbicidal bioassay on radish; type: in vivo; parameters: Control, Day-1 Reading, Replicate 1 / Control, Day-1 Reading, Replicate 2 / Control, Day-1 Reading, Replicate 3 / Control, Day-1 Reading, AVG / Control, Day-7 Reading, Replicate 1 / Control, Day-7 Reading, Replicate 2 / Control, Day-7 Reading, Replicate 3 / Control, Day-7 Reading, AVG: scale not given here; conditions: 10 mg/ml; for Control, Day-1 Reading, AVG / Control, Day-1 Reading, Replicate 1 / Control, Day-1 Reading, Replicate 2 / Control, Day-1 Reading, Replicate 3 / Control, Day-7 Reading, AVG / Control, Day-7 Reading, Replicate 1 / Control, Day-7 Reading, Replicate 2 / Control, Day-7 Reading, Replicate 3: foliar spray
Description: Healthy radish plants with two to three true leaves were selected for testing. The radish plants are 13 days old at treatment. The plants are sorted so that all treatments are equivalent in foliage surface area and plant height. The pots are labeled with treatment number and repetition number. Three repetitions per treatment are tested.
Ten fractions of MBI-206 formulated product are tested. The fractions are at a concentration of 10 mg/ml. The crude extracts of the formulated product and broth are also tested. An untreated control (treated with deionized water) and a positive control (RoundUp Super Concentrate at a rate of 2.5 fluid ounces per gallon) are included in the test.
All products and treatments are well shaken prior to application. Treatments are applied using a nozzle from a 2-ounce spray bottle. Separate spray nozzles were used for each treatment. […] Two milliliters of each treatment are sprayed simultaneously over the three repetitions of each treatment so that each plant is treated with approximately 0.67 milliliters of treatment solution.
The plants are allowed to air dry and are then randomized in holding trays. Each tray is labeled with the experiment name and treatment date and placed on the laboratory greenhouse shelves. The laboratory greenhouse maintains a temperature of 70-80° F. and a relative humidity of 30-40%. Throughout the bioassay, plants are watered from below by filling the holding trays with an appropriate amount of water so that plant foliage remained dry.
Symptoms included foliage burning and plant stunting. The following rating scale, shown in Table 4 is used to quantify efficacy. Ratings are determined by observing the following factors relative to the plants of the untreated control: overall plant health, average plant height, and foliage health. Symptoms of affected plants may include discolored/spotted/burnt/bleached foliage, warped/twisted/curled leaves, side branching (due to damaged apical meristem), plant dieback, or death.
The pure compounds (butyl paraben [MBI206-FP-F5H32] and hexyl paraben [MBI206-FP-F5H40]) obtained from fraction 5 were tested at a concentration of 10 mg/ml. An untreated control (treated with deionized water), the formulation blank (at 3% v/v & 10% v/v), and a positive control (RoundUp Super Concentrate at a rate of 2.5 fluid ounces per gallon) are included in the test.

[1] = tested on: Beet Armyworm (Spodoptera exigua); assay: 96-well diet overlay assay with 1st instar Beet Armyworm larvae; type: in vivo; conditions: for mortality at 40 µg/disc: Spodoptera exigua
Description: The insecticidal activity of butyl paraben (MBI206-FP-F5H32) and hexyl paraben (MBI206-FP-F5H40) were tested in a laboratory assay using a 96-well diet overlay assay with 1st instar Beet Armyworm (Spodoptera exigua) larvae using microtiter plates with 200 ul of solid, artificial Beet Armyworm diet in each well. One hundred (100) microliters of each test sample (containing 40 ug of sample) is pipetted on the top of the diet (one sample in each well), and the sample is let dry under flowing air until the surface is dry. Each sample was tested in six replicates, and water and a commercial Dipel product are used as negative and positive controls, respectively. One first instar larvae of the test insect (Beet armyworm—Spodoptera exigua) was placed in each well, and the plate was covered with plastic cover with airholes. The plates with insects were incubated at 26° C. for 6 days with daily mortality evaluations.

M. incognita [2] = assay: In vitro 96-well nematode immobility bioassay, trial T1; type: in vivo; conditions: 3 μl of 20 mg/ml to 50 μl, 24 hour, 25° C
Description: (§1) The pure sample of butyl paraben and hexyl paraben was used in an in vitro 96-well plastic cell-culture plate bioassay. 15-20 nematodes in a 50 μl water solution were exposed to 3 μl of a 20 mg/ml peak concentrate for a 24 hour period at 25° C. Once the incubation period was completed, results were recorded based on a visual grading of immobility of the juvenile nematodes (J2's) in each well treated with compounds; each treatment was tested in replicate of 4 wells. […] Three controls are included in each trial; 1 positive (1% Avid) & 2 negative (DMSO & water). Trials (T1) was carried out using M. incognita nematodes and trail (T2) was carried out using M. hapla nematodes, the samples were dissolved in 100% DMSO.

M. hapla = assay: In vitro 96-well nematode immobility bioassay, trial T2; type: in vivo; conditions: 3 μl of 20 mg/ml to 50 μl, 24 hour, 25° C
Description: as §1

[3] = tested on: M. incognita and M. hapla; assay: In vitro 96-well nematode immobility bioassay, mean of trials T1 and T2; type: in vivo; conditions: 3 μl of 20 mg/ml to 50 μl, 24 hour, 25° C
Description: as §1

[4] = tested on: Chlamydomonas reinhardtii; assay: Control of Chlamydomonas reinhardtii by purified compounds, fluorescence at 680 nm; type: cell-based; conditions: 72 hours
Description: Purified compounds from Burkholderia sp. fermentation broth was tested for algaicidal activity against Chlamydomonas reinhardtii. An increasing volume of the purified compounds (20 mg/mL in ethanol) was added to a clear 48 well polystyrene plate with 750 micro liters of the specified algae growing. Each treatment was done in two replicates and the solvent used as a negative control. The plate was closed with a lid and incubated for 72 hours under constant light at room temperature. After 72 hours the fluorescence (at 680 nm) of the suspension in each well was measured using a SpectraMax M2 plate reader, and the reduction in fluorescence compared with the negative control was converted into percent control of algal growth. Each sample was visually compared to the negative control; a well that was visually clearer than the negative control was scored as active. […] Tests were run in two replicates and %. Control was calculated as a reduction of fluorescence at 680 nm compared with the negative control. Each sample was visually compared to the negative control; a well that was visually clearer than the negative control was scored as active.

[5] = tested on: milkweed bugs (Oncopeltus fasciatus); assay: Sucking contact bioassay on milkweed bugs; type: in vivo; conditions: 1 μL of 1 mg/mL in ethanol onto abdomen of 4th instar; scored at 4 and 7 day
Description: The insecticidal activity of the pure compounds templamide B (MBI 206; MW 537), FR 901465 (MBI 206; MW 523) and FR901228 (MBI 206; MW 540) were tested in a laboratory assay using a sucking contact bioassay system. The compounds were dissolved in 100% ethanol to concentrations of 1 mg/mL. Individual 4th instar milkweed bugs, penultimate nymph, larvae were placed in 5C Rubbermaid container with 2 sunflower seeds in each tub and 1 water cup (water in contact cup with cotton wick) into each tub. A Hamilton Micropipette was used to apply 1 μL (1 drop) of compound onto abdomen of milkweed bugs (MWB) of each larvae. Tubs were place into the Rubbermaid container and cap with mesh lid. Eight larvae per sample were treated. The assay was incubated at 25° C., 12 h light/12 h dark. Larvae were scored at 4 and 7 day after application. […] Thus, FR 901465 provided a better (87.5%) control of milkweed bugs, than FR 901228 (MW 540) and templamide B (FIG. 4).

Lygus hesperus = assay: 12 well plate treated green beans bioassay, Lygus hesperus late 2nd/early 3rd instar; type: in vivo; conditions: Lygus hesperus; green beans dipped in 0.25 mg/mL; scored at 24, 48 and 120 hours
Description: The insecticidal activity of the four compounds, templamide A, templamide B, FR901465 & FR901228 isolated from Burkholderia were tested in a laboratory assay using a 12 well plate with treated green beans bioassay system. The compound was dissolved in 100% ethanol to concentrations of […] and 500 μL of this sample was added to 3.5 mL of water to make a total volume of 4 mL containing 0.25 mg/mL concentration of the compound. Green beans were washed earlier in bleach solution and then sat in water to rinse. Beans were dried before using and then were cut with scissors to fit into wells of 12-well plate. With the help of forceps the beans were dunked into a 15 mL plastic falcon tube containing each treatment and then submerged in treatment for exactly one min. one bean part was put into each well and then individual late 2nd/early 3rd instar Lygus hesperus, were placed in wells with help of brush. Plate sealer was used to cover tray and hole poked into the plate sealer for aeration. The numbers of Lygus/well were counted and plates were placed on brench top. Larvae were scored at 24, 48 and 120 hours after application. […] The positive control used in this testing was Avid (Avemectin) at the rate of 13 μL/10 mL.

[6] = tested on: Free living nematodes (FLN); assay: In vitro 96-well nematode immobility bioassay of FR901228, trial T1; type: in vivo; conditions: 3 μl of 20 mg/ml to 50 μl, 24 hour, 25 C
Description: (§2) The pure sample of FR 901228 was tested using an in vitro 96-well plastic cell-culture plate bioassay. 15-20 nematodes in a 50 μl water solution were exposed to 3 μl of a 20 mg/ml solution of FR 901228 for a 24 hour period at 25 C. Once the incubation period was completed, results were recorded based on a visual grading of immobility of the juvenile nematodes (J2's) in each well treated with compounds; each treatment was tested in replicate of 4 wells. Three controls are included in each trial; 1 positive (1% Avid) & 2 negative (DMSO & water). Trials (T1) was carried out using Free living nematodes (FLN) and trail (T2) was carried out using M. incognita nematodes, the samples were dissolved in 100% DMSO.

M. incognita [7] = assay: In vitro 96-well nematode immobility bioassay of FR901228, trial T2; type: in vivo; conditions: 3 μl of 20 mg/ml to 50 μl, 24 hour, 25 C
Description: as §2

[8] = 72 h, read-out: Insecticidal bioassay data (mortality), Day 3
[9] = 96 h, read-out: Insecticidal bioassay data (mortality), Day 4
[10] = 5 μL of sample (20 mg/mL in ethanol) per 750 μL of algae
[11] = 5 μL of sample per 750 μL of algae
[12] = 11 μL of sample (20 mg/mL in ethanol) per 750 μL of algae
[13] = 11 μL of sample per 750 μL of algae
[14] = 22.5 μL of sample (20 mg/mL in ethanol) per 750 μL of algae
[15] = 22.5 μL of sample per 750 μL of algae, well visually clearer than negative control scored as active

## CCCCOC(=O)c1ccc(O)cc1 [Butyl paraben, butyl paraben]
Radish plants
  Control, Day-1 Reading, AVG: 18.3
  Control, Day-1 Reading, Replicate 1: 25
  Control, Day-1 Reading, Replicate 2: 5
  Control, Day-1 Reading, Replicate 3: 25
  Control, Day-7 Reading, AVG: 24.2
  Control, Day-7 Reading, Replicate 1: 25
  Control, Day-7 Reading, Replicate 2: 10
  Control, Day-7 Reading, Replicate 3: 37.5
[1]; 40 ug of sample per well, text summary of Table 7
  mortality: 9%
[1]; [8]
  mortality at 40 µg/disc: 8.93%
[1]; [9]
  mortality at 40 µg/disc: 8.93%
M. incognita [2]
  % immobility (trial # T1): 75%
  immobility against M. incognita: 81.25%
M. hapla
  % immobility (trial # T2): 87.5%
[3]
  Mean % immobility: 81.25%

## CCCCCCOC(=O)c1ccc(O)cc1 [Hexyl paraben, hexyl paraben]
Radish plants; compared with butyl paraben
  herbicidal potency in words: most potent herbicidal compound
Radish plants
  Control, Day-1 Reading, AVG: 75.0
  Control, Day-1 Reading, Replicate 1: 75
  Control, Day-1 Reading, Replicate 2: 75
  Control, Day-1 Reading, Replicate 3: 75
  Control, Day-7 Reading, AVG: 87.5
  Control, Day-7 Reading, Replicate 1: 87.5
  Control, Day-7 Reading, Replicate 2: 87.5
  Control, Day-7 Reading, Replicate 3: 87.5
[1]; [8]
  mortality at 40 µg/disc: 50%
[1]; [9]
  mortality at 40 µg/disc: 70.8%
M. incognita [2]
  % immobility (trial # T1): 87.5%
  immobility against M. incognita: 93.75%
M. hapla
  % immobility (trial # T2): 100%
[3]
  Mean % immobility: 93.75%

## CC(=O)OC(C)/C=C\C(=O)NC1CC(C)C(C/C=C(C)/C=C/C2OC(C)(O)C(O)C3(CO3)C2O)OC1C (centres unmarked) [FR901465]
[4]; [10]
  % Control: −86.58%
[4]; [11]
  Visual: Not Active
[4]; [12]
  % Control: −33.58%
[4]; [13]
  Visual: Not Active
[4]; [14]
  % Control: −3.887%
[4]; [15]
  Visual: Not Active
[5]
  control of milkweed bugs: 87.5%
Lygus hesperus
  mortality at 250 µg/mL: 91.2%

## C/C=C1\NC(=O)[C@H]2CSSCC/C=C/[C@H](CC(=O)N[C@H](C(C)C)C(=O)N2)OC(=O)[C@H](C(C)C)NC1=O [FR901228]
[4]; [10]
  % Control: 89.48%
[4]; [11]
  Visual: Active
[4]; [12]
  % Control: 99.36%
[4]; [13]
  Visual: Active
[4]; [14]
  % Control: 98.71%
[4]; [15]
  Visual: Active
Lygus hesperus
  mortality at 250 µg/mL: 51.7%
[6]
  immobility: 75%
M. incognita [7]
  immobility: 75%
